Data on 19 molecules can be found in patent US6864363B2 (priority 2000, dated 2005).

The series relates to P. gingivalis DPP-7. Format: biochemical, Porphyromonas gingivalis.

Several values for one entry are separate records, joined by “and”; a condition that tells them apart may be missing. Equal values may be shown once. Square brackets hold non-standard residues; d marks the D form. Peptide text beside a SMILES is read from it. * marks the point of attachment. Sta = CC(C)C[C@H](N)[C@@H](O)CC(=O)O; Isovaleryl = CC(C)CC(=O)*

In the case of Aprotinin, the “% of residual activity” value was 128%.
Turning to `CC(=O)N[C@@H](CC(C)C)C(=O)N[C@@H](CC(C)C)C(=O)N[C@H](C=O)CCCNC(=N)N` [Leupeptin], the “% of residual activity” value worked out at 107%.
Regarding `O=C(O)CN(CCN(CC(=O)O)CC(=O)O)CC(=O)O` [EDTA], the “% of residual activity” value is given as 90% and the “inactivation of / influence on DPP-7 activity (in words)” value (“inactivation of / influence” for short) is given as “did not influence its activity”.
For `O=C(O)CI` [Iodoacetic acid], the “% of residual activity” value is 102% and the “inactivation of / influence” value is reported as “not”.
For `CCCCCCCCCCCCOS(=O)(=O)[O-].[Na+]` [SDS], the “inactivation of / influence” value is reported as “not sensitive to inactivation”.
Take “α2-macroglobulin: human plasma inhibitor”: the “inactivation of / influence” value is “did not effect enzyme activity”.
Take “α1-proteinase inhibitor: human plasma inhibitor”: the “inactivation of / influence” value was “did not effect enzyme activity”.
With Triton X-100, the “% of residual activity” value was 144% and 103% and 94%; the “inactivation of / influence” value was “not sensitive to inactivation”.
`c1cnc2c(c1)ccc1cccnc12` [1,10-orthophenanthroline]: the “% of residual activity” value is recorded as 98% and the “inactivation of / influence” value was “did not influence its activity”.
As to `NCCCC[C@H](N)C(=O)NCC(=O)O` [Lys-Gly] (H-Lys-Gly-OH), the “% of residual activity” value is listed as 96%.
In the case of `N[C@@H](CS)C(=O)O` [Cysteine], the “% of residual activity” value turned out to be 90%.
With `C[C@H](NC(=O)CN)C(=O)O` [Gly-Ala] (H-Gly-Ala-OH), the “% of residual activity” value was determined as 102%.
Regarding `O=c1oc(Cl)c(Cl)c2ccccc12` [3,4-dichloroisocoumarin], the “% of residual activity” value is listed as 0% and the “inactivation of / influence” value is on record as “inactivated”.
On to `C[C@H](N)C(=O)NCC(=O)O` [Ala-Gly] (H-Ala-Gly-OH), for which the “% of residual activity” value is listed as 96%.
`CC(C)CC(=O)N[C@H](C(=O)N[C@H](C(=O)N[C@@H](CC(C)C)[C@@H](O)CC(=O)N[C@@H](C)C(=O)N[C@@H](CC(C)C)[C@@H](O)CC(=O)O)C(C)C)C(C)C` [Pepstatin] (Isovaleryl-VV[Sta]A[Sta]-OH): the “% of residual activity” value amounted to 127%.
`Cl.NCCc1ccc(S(=O)(=O)F)cc1` [PEFABLOCK, 4-(2-aminoethyl)-benzenesulfonyl fluoride hydrochloride]: the “% of residual activity” value was 1% and the “inactivation of / influence” value is “inactivated”.
As to `NC(N)=NCCC[C@H](N)C(=O)N[C@@H](Cc1ccccc1)C(=O)O` [Arg-Phe], the “% of residual activity” value was determined as 69%.
Regarding `NC(N)=NCCC[C@H](N)C(=O)NCC(=O)O` [Arg-Gly] (H-Arg-Gly-OH), the “% of residual activity” value was determined as 84%.

B1: α1-antichymotrypsin: human plasma inhibitor (protein)
chain: HPNSPLDEENLTQENQDRGTHVDLGLASANVDFAFSLYKQLVLKAPDKNVIFSPLSISTALAFLSLGAHNTTLTEILKGLKFNLTETSEAEIHQSFQHLLRTLNQSSDELQLSMGNAMFVKEQLSLLDRFTEDAKRLYGSEAFATDFQDSAAAKKLINDYVKNGTRGKITDLIKDLDSQTMMVLVNYIFFKAKWEMPFDPQDTHQSRFYLSKKKWVMVPMMSLHHLTIPYFRDEELSCTVVELKYTGNASALFILPDQDKMEEVEAMLLPETLKRWRDSLEFREIGELYLPKFSISRDYNLNDILLQLGIEEAFTSKADLSGITGARNLAVSQVVHKAVLDVFEEGTEASAATAVKITLLSALVETRTIVRFNRPFLMIIVPTDTQNIFFMSKVTNPKQA
For B1, the “inactivation of / influence” value was “did not effect enzyme activity”.
